Values of other authors as cited in patent US9844530B1, “Ophthalmic solutions for glaucoma and conjunctivitis treatment” (Axim Biotechnologies, Inc., priority 2014, dated 2017).

System: various Staphylococcus aureus strains
Conditions: background statement

SMILES: C=C(C)[C@@H]1CCC(C)=C[C@H]1c1c(O)cc(CCCCC)cc1O [Cannabidiol]
- minimum inhibitory concentration: 0.5 to 1 µg/mL
